Measurements: patent US12378193B2, “Anti-arrhythmicity agents” (The Regents of the University of California, priority 2014, dated 2025)

What follows are compounds tested on zebrafish tremblor (tre) embryos (assay: Restoration of coordinated cardiac contractions in tre embryos). Conditions: tremblor embryos.
Assay type: in vivo
Procedure: (§1) VDAC2 mRNA and morpholino antisense oligos (5′-[…]-3′) (Genetools) (SEQ ID NO: 9) were injected into one-cell stage embryos collected from crosses of tre^tc318 heterozygotes. Cardiac performance was analyzed by visual inspection on 1 dpf. The tre mutant embryos were identified either by observing the fibrillation phenotype at 2-3 dpf or by genotyping as previously described (Langenbacher et al., 2005).
(§2) Chemicals from a synthetic library (Castellano et al., 2007, J Am Chem Soc 129, 5843-5845; Choi et al., 2011, Development 138, 1173-1181; Cruz et al., 2011, Proc Natl Acad Sci USA 108, 6769-6774) and from Biomol International LP were screened for their ability to partially or completely restore persistent heartbeat in tre embryos. 12 embryos collected from crosses of tre^tc318 heterozygotes were raised in the presence of individual compounds at a concentration of 10 μM from 4 hpf (Choi et al., 2011). Cardiac function was analyzed by visual inspection at 1 and 2 dpf. The hearts of tre^tc318 embryos manifest a chaotic movement resembling cardiac fibrillation with intermittent contractions in rare occasion (Ebert et al., 2005; Langenbacher et al., 2005). Compounds that elicit persistent coordinated cardiac contractions were validated on large number of tre mutant embryos and NCX1h morphants (>500 embryos).
For `CCOC(=O)C1=CCN(S(C)(=O)=O)C1c1ccccc1` (racemic) [OK-C19], the “restoration of rhythmic contractions in tremblor embryos” value was “failed to rescue the tremblor phenotype”. With `CCOC(=O)C1=CCN(S(=O)(=O)c2cccc(F)c2)C1c1ccc(F)cc1` (racemic) [OK-C125] the “restoration of rhythmic contractions in tremblor embryos” value was “restored rhythmic contractions in the majority of tremblor embryos”.

The compounds below were run on Zebrafish tremblor mutant (assay: Zebrafish screening: injection into tremblor mutants). Conditions: Table 1.
Assay type: in vivo
Procedure: (§3) We screened our above mention library by using tremblor mutants Zebrafish embryos. […] Compounds were screened for their ability to suppress cardiac fibrillation and/or restore rhythmic synchronized contraction. Briefly, we treated the embryo by soaking in 20 μM solution or injecting compounds after 24 hours fertilization and observed the phenotype after 48 hours. Further, we determined the structure-activity relationship (SAR) between the active compound's structures and the ability to suppress cardiac fibrillation and/or restore rhythmic synchronized contraction.
(§4) Zebrafish tremblor mutant eggs were collected at 1 cell stages. 1 nL of compound in Daneu's buffer were injected into the embryo. After 24 hours the embryo was arrayed in 24-well plates (20 twenty embryos/well) in 500 μL buffer. After 48 hour fertilization in 29° C., phenotypic changes were observed using a high magnification dissecting microscope.
`CCOC(=O)C1=CCN(S(=O)(=O)c2ccccc2C)C1c1ccc(F)cc1` (racemic) [F7-I-G04] was tested, and the “Injection into tremblor Mutants: % Rescued” value was 26/85%. With `CCOC(=O)C1=CCN(S(=O)(=O)c2ccc(Cl)cc2)C1c1ccc(Br)cc1` (racemic) [F7-I-H05] the “Injection into tremblor Mutants: % Rescued” value was 43/74%. In the case of `CCOC(=O)C1=CCN(S(=O)(=O)c2ccc(F)cc2)C1c1ccc(F)cc1` (racemic) [F7-II-A01], the “Injection into tremblor Mutants: % Rescued” value is reported as 27/74%. `CCOC(=O)C1=CCN(S(=O)(=O)c2ccc(Cl)cc2)C1c1ccccc1` (racemic) [F7-II-A11] was tested, and the “Injection into tremblor Mutants: % Rescued” value was 30/73%. `CCOC(=O)C1=CCN(S(=O)(=O)c2ccc(F)cc2)C1c1ccccc1` (racemic) [F7-II-B01] was tested, and the “Injection into tremblor Mutants: % Rescued” value was 21/81%. For `CCOC(=O)C1=CCN(S(=O)(=O)c2ccc(F)cc2)C1c1ccc(Cl)c(Cl)c1` (centres unmarked) [F7-I-F05], the “Injection into tremblor Mutants: % Rescued” value was 10/80%. `CCOC(=O)C1=CCN(S(=O)(=O)c2ccc(F)cc2)C1c1cccc(C)c1` (centres unmarked) [F7-I-F09] was tested, and the “Injection into tremblor Mutants: % Rescued” value was 15/87%. For `CCOC(=O)C1=CCN(S(=O)(=O)c2cccc(Cl)c2)C1c1cccc(Cl)c1` (centres unmarked) [F7-I-F11], the “Injection into tremblor Mutants: % Rescued” value was 28/79%. `CCOC(=O)C1=CCN(S(=O)(=O)c2ccccc2Br)C1c1ccc(Cl)cc1` (centres unmarked) [F7-I-G09] was tested, and the “Injection into tremblor Mutants: % Rescued” value was 23/87%.

Same assay, conditions: Table 4, injection into tremblor mutants
With `CCOC(=O)C1=CCN(S(=O)(=O)c2ccccc2C)C1c1ccc(F)cc1` (racemic) [F7-I-G04] the “Screen 1 Rescue percent” value was 78% and the “Screen 2 Rescue percent” value was 88%. With `CCOC(=O)C1=CCN(S(=O)(=O)c2ccc(Cl)cc2)C1c1ccc(Br)cc1` (racemic) [F7-I-H05] the “Screen 1 Rescue percent” value was 86%, the “Screen 2 Rescue percent” value was 69% and the “Screen 3 Rescue percent” value was 75%. For `CCOC(=O)C1=CCN(S(=O)(=O)c2ccc(F)cc2)C1c1ccc(F)cc1` (racemic) [F7-II-A01], the “Screen 1 Rescue percent” value was 74%. With `CCOC(=O)C1=CCN(S(=O)(=O)c2ccc(Cl)cc2)C1c1ccccc1` (racemic) [F7-II-A11] the “Screen 1 Rescue percent” value was 73%. `CCOC(=O)C1=CCN(S(=O)(=O)c2ccc(F)cc2)C1c1ccccc1` (racemic) [F7-II-B01] was tested, and the “Screen 1 Rescue percent” value was 91% and the “Screen 2 Rescue percent” value was 79%. For `CCOC(=O)C1=CCN(S(=O)(=O)c2ccc(F)cc2)C1c1ccc(Cl)c(Cl)c1` (centres unmarked) [F7-I-F05], the “Screen 1 Rescue percent” value was 80%. For `CCOC(=O)C1=CCN(S(=O)(=O)c2ccc(F)cc2)C1c1cccc(C)c1` (centres unmarked) [F7-I-F09], the “Screen 1 Rescue percent” value was 87%. In the case of `CCOC(=O)C1=CCN(S(=O)(=O)c2cccc(Cl)c2)C1c1cccc(Cl)c1` (centres unmarked) [F7-I-F11], the “Screen 1 Rescue percent” value is reported as 80% and the “Screen 2 Rescue percent” value is reported as 78%. In the case of `CCOC(=O)C1=CCN(S(=O)(=O)c2ccccc2Br)C1c1ccc(Cl)cc1` (centres unmarked) [F7-I-G09], the “Screen 1 Rescue percent” value is reported as 78%.

Same assay, conditions: Table 4, over all screens
`CCOC(=O)C1=CCN(S(=O)(=O)c2ccccc2C)C1c1ccc(F)cc1` (racemic) [F7-I-G04] was tested, and the Average rescue ratio was 85%. With `CCOC(=O)C1=CCN(S(=O)(=O)c2ccc(Cl)cc2)C1c1ccc(Br)cc1` (racemic) [F7-I-H05] the Average rescue ratio was 74%. `CCOC(=O)C1=CCN(S(=O)(=O)c2ccc(F)cc2)C1c1ccc(F)cc1` (racemic) [F7-II-A01] showed an Average rescue ratio of 74%. `CCOC(=O)C1=CCN(S(=O)(=O)c2ccc(Cl)cc2)C1c1ccccc1` (racemic) [F7-II-A11] showed an Average rescue ratio of 73%. In the case of `CCOC(=O)C1=CCN(S(=O)(=O)c2ccc(F)cc2)C1c1ccccc1` (racemic) [F7-II-B01], the Average rescue ratio is reported as 81%. For `CCOC(=O)C1=CCN(S(=O)(=O)c2ccc(F)cc2)C1c1ccc(Cl)c(Cl)c1` (centres unmarked) [F7-I-F05], the Average rescue ratio was 80%. With `CCOC(=O)C1=CCN(S(=O)(=O)c2ccc(F)cc2)C1c1cccc(C)c1` (centres unmarked) [F7-I-F09] the Average rescue ratio was 87%. `CCOC(=O)C1=CCN(S(=O)(=O)c2cccc(Cl)c2)C1c1cccc(Cl)c1` (centres unmarked) [F7-I-F11] showed an Average rescue ratio of 79%. Compound `CCOC(=O)C1=CCN(S(=O)(=O)c2ccccc2Br)C1c1ccc(Cl)cc1` (centres unmarked) [F7-I-G09] has an Average rescue ratio of 78%.

The compounds below were run on NCX1hMO injected embryos (assay: Restoration of coordinated cardiac contractions in NCX1h morpholino embryos). Conditions: linker-attached compounds.
Assay type: in vivo, zebrafish
Procedure: as §1, §2
With `CCOC(=O)C1=CCN(S(C)(=O)=O)C1c1ccccc1` (racemic) [OK-C19] the “restoration of rhythmic contractions in NCX1hMO injected embryos” value was “unable to induce rhythmic contraction”. With `CCOC(=O)C1=CCN(S(=O)(=O)c2cccc(F)c2)C1c1ccc(F)cc1` (racemic) [OK-C125] the “restoration of rhythmic contractions in NCX1hMO injected embryos” value was “retained their ability to restore rhythmic contractions”.

These compounds were tested on VDAC2 (assay: Affinity bead pull down from zebrafish embryo lysate with mass spectrometry). Conditions: zebrafish embryonic lysate, affinity agarose beads.
Assay type: binding
Procedure: For pull down assays mono-N-Boc protected 2,2′-(ethylenedioxy)bis(ethylamine) was attached to the carboxylic ester of efsevin and its derivatives through the amide bond. After removal of the Boc group using TFA, the primary amine was coupled to the carboxylic acid of Affi-Gel 10 Gel (Biorad). Two-day-old zebrafish embryos were deyolked by centrifugation before being lysed with Rubinfeld's lysis buffer (Rubinfeld et al., 1993, Science 262, 1731-1734). The lysate was precleaned by incubation with Affi-Gel 10 Gel to eliminate non-specific binding. Precleaned lysate was incubated with affinity beads overnight. Proteins were eluted from the affinity beads and separated on SDS-PAGE. Protein bands of interest were excised. Gel plugs were dehydrated in acetonitrile (ACN) and dried completely in a Speedvac. Samples were reduced and alkylated with 10 mM dithiotreitol and 10 mM TCEP solution in 50 mM NH4HCO3 (30 min at 56° C.) and 100 mM iodoacetamide (45 min in dark), respectively. Gel plugs were washed with 50 mM NH4HCO3, dehydrated with ACN, and dried down in a Speedvac. Gel pieces were then swollen in digestion buffer containing 50 mM NH4HCO3, and 20.0 ng/μL of chymotrypsin (25° C., overnight). Peptides were extracted with 0.1% TFA in 50% ACN solution, dried down and resuspended in LC buffer A (0.1% formic acid, 2% ACN).
Extracted peptides were analyzed by nano-flow LC/MS/MS on a Thermo Orbitrap with dedicated Eksigent nanopump using a reversed phase column (New Objective). The flow rate was 200 nL/min for separation: mobile phase A contained 0.1% formic acid, 2% ACN in water, and mobile phase B contained 0.1% formic acid, 20% water in ACN. The gradient used for analyses was linear from 5% B to 50% B over 60 min, then to 95% B over 15 min, and finally keeping constant 95% B for 10 min. Spectra were acquired in data-dependent mode with dynamic exclusion where the instrument selects the top six most abundant ions in the parent spectra for fragmentation. […]
For `CCOC(=O)C1=CCN(S(C)(=O)=O)C1c1ccccc1` (racemic) [OK-C19], the “pull down of the 32 kD band (VDAC2)” value was “not detected”. `CCOC(=O)C1=CCN(S(=O)(=O)c2cccc(F)c2)C1c1ccc(F)cc1` (racemic) [OK-C125] was tested, and the “pull down of the 32 kD band (VDAC2)” value was “pulled down”.

These compounds were tested on Zebrafish embryo injected with morpholino to NCX1h (assay: Zebrafish screening: injection with morpholino to NCX1h). Conditions: Table 1.
Assay type: in vivo
Procedure: as §3
as §4, with “Zebrafish” for “Zebrafish tremblor mutant”, “buffer and 1 nL of morpholino (1 mM) to NCX1h was” for “buffer were”
In the case of `CCOC(=O)C1=CCN(S(=O)(=O)c2ccccc2C)C1c1ccc(F)cc1` (racemic) [F7-I-G04], the “Injection with Morpholino: % Rescued” value is reported as 8/75%. In the case of `CCOC(=O)C1=CCN(S(=O)(=O)c2ccc(Cl)cc2)C1c1ccc(Br)cc1` (racemic) [F7-I-H05], the “Injection with Morpholino: % Rescued” value is reported as 8/88%. For `CCOC(=O)C1=CCN(S(=O)(=O)c2ccc(F)cc2)C1c1ccc(F)cc1` (racemic) [F7-II-A01], the “Injection with Morpholino: % Rescued” value was 8/38%. With `CCOC(=O)C1=CCN(S(=O)(=O)c2ccc(Cl)cc2)C1c1ccccc1` (racemic) [F7-II-A11] the “Injection with Morpholino: % Rescued” value was 6/0%. With `CCOC(=O)C1=CCN(S(=O)(=O)c2ccc(F)cc2)C1c1ccccc1` (racemic) [F7-II-B01] the “Injection with Morpholino: % Rescued” value was 6/67%. `CCOC(=O)C1=CCN(S(=O)(=O)c2ccc(F)cc2)C1c1ccc(Cl)c(Cl)c1` (centres unmarked) [F7-I-F05] was tested, and the “Injection with Morpholino: % Rescued” value was 14/50%. `CCOC(=O)C1=CCN(S(=O)(=O)c2ccc(F)cc2)C1c1cccc(C)c1` (centres unmarked) [F7-I-F09] was tested, and the “Injection with Morpholino: % Rescued” value was 8/75%. With `CCOC(=O)C1=CCN(S(=O)(=O)c2cccc(Cl)c2)C1c1cccc(Cl)c1` (centres unmarked) [F7-I-F11] the “Injection with Morpholino: % Rescued” value was 8/88%. In the case of `CCOC(=O)C1=CCN(S(=O)(=O)c2ccccc2Br)C1c1ccc(Cl)cc1` (centres unmarked) [F7-I-G09], the “Injection with Morpholino: % Rescued” value is reported as 6/67%.

Same assay, conditions: Table 3, morpholino mutants
With `CCOC(=O)C1=CCN(S(=O)(=O)c2ccccc2C)C1c1ccc(F)cc1` (racemic) [F7-I-G04] the Rescue percent was 75%. Work on `CCOC(=O)C1=CCN(S(=O)(=O)c2ccc(Cl)cc2)C1c1ccc(Br)cc1` (racemic) [F7-I-H05] yielded a Rescue percent of 88%. For `CCOC(=O)C1=CCN(S(=O)(=O)c2ccc(F)cc2)C1c1ccc(F)cc1` (racemic) [F7-II-A01], the Rescue percent was 38%. `CCOC(=O)C1=CCN(S(=O)(=O)c2ccc(Cl)cc2)C1c1ccccc1` (racemic) [F7-II-A11] gave a Rescue percent of 0%. Compound `CCOC(=O)C1=CCN(S(=O)(=O)c2ccc(F)cc2)C1c1ccccc1` (racemic) [F7-II-B01] has a Rescue percent of 67%. Compound `CCOC(=O)C1=CCN(S(=O)(=O)c2ccc(F)cc2)C1c1ccc(Cl)c(Cl)c1` (centres unmarked) [F7-I-F05] has a Rescue percent of 50%. Work on `CCOC(=O)C1=CCN(S(=O)(=O)c2ccc(F)cc2)C1c1cccc(C)c1` (centres unmarked) [F7-I-F09] yielded a Rescue percent of 75%. For `CCOC(=O)C1=CCN(S(=O)(=O)c2cccc(Cl)c2)C1c1cccc(Cl)c1` (centres unmarked) [F7-I-F11], the Rescue percent was 88%. `CCOC(=O)C1=CCN(S(=O)(=O)c2ccccc2Br)C1c1ccc(Cl)cc1` (centres unmarked) [F7-I-G09] showed a Rescue percent of 67%.
